{
  "source": "patent US20110218143A1",
  "about": "“COMPOSITIONS AND METHODS FOR TISSUE REPAIR” (UNIVERSITY OF FLORIDA RESEARCH FOUNDATION, priority 2007, published 2011)",
  "key": {"[1]": {"system": "stem cell populations in bone marrow (cd34+, cd45+, Sca-1+ cells)", "experiment": "FACS of cells expressing stem cell markers CD34, CD45, Sca-1 in bone marrow samples", "format": "in vivo, C57BL6/J mice", "experimental": "Mice received either a placebo (PBS) or oridonin (3.0 mg/kg) by intraperitoneal injection."}, "[2]": {"system": "mice with STZ induced diabetes", "experiment": "Blood glucose in streptozotocin (STZ) induced diabetes model", "format": "in vivo, C57BL6/J mice", "conditions": "STZ 50 mg/kg i.p.; celastrol 2.5 mg/kg by injection from day -2, three times per week; monitored 30 days", "experimental": "The administration of streptozotocin to induce pancreatic cell death is a well-known model of diabetes, see for example, Like and Rossini, “Streptozotocin-induced pancreatic insulitis: new model of diabetes mellitus.” Science. Jul. 30, 1976; 193(4251):415-7. Fasting C57BL6/J mice received 50 mg/kg streptozotocin (STZ) by intraperitoneal injection at day 0. Two days prior to (−2 day) and concurrently with STZ injection half of the mice also received celastrol by injection (2.5 mg/kg). Celastrol injections continued three times per week throughout the experiment. Blood glucose levels were monitored for 30 days after treatment (FIG. 9). […] In mice, normoglycemia is typically less than 200 mg/dL blood glucose."}, "[3]": {"system": "mice with STZ induced diabetes", "experiment": "Glucose challenge test in STZ mice", "format": "in vivo, C57BL6/J mice", "conditions": "1 g glucose/kg, monitored up to 5 hours, placebo mice at or above 400 mg/dl between 0.5 and 2 hours", "experimental": "STZ was administered to C57BL6/J mice as described above to induce diabetes. Groups of C57BL6/J mice that received either STZ and placebo or STZ and celastrol were then subjected to a glucose challenge test to assay glucose metabolism. STZ mice received 1 g glucose/kg. Blood glucose levels were monitored for up to 5 hours following administration of glucose. […] Blood glucose levels never reached these levels in STZ mice treated with celastrol. In fact, mice treated with celastrol were better able to metabolize glucose than STZ mice that received placebo (FIG. 10)."}, "[4]": {"system": "mice with ALF induced by TAA", "experiment": "Liver histology in thioacetamide (TAA) induced acute liver failure", "format": "in vivo, C57BL6/J mice", "conditions": "TAA 500 mg/kg; celastrol 2.5 mg/kg by injection; 3 days after ALF induction", "experimental": "The administration of thiomacetamide (TAA) to induce liver damage is a well-known model of acute liver failure (ALF), see for example, Müller et al., “Thioacetamide-induced cirrhosis-like liver lesions in rats—usefulness and reliability of this animal model.” Exp Pathol. 1988; 34(4):229-36. Groups of C57BL6/J mice received either TAA (1000 mg/kg), TAA (500 mg/kg), or placebo by intraperitoneal injection. The group receiving TAA (500 mg/kg) was divided into two subgroups, and one group received NS by injection and the other group received celastrol by injection (2.5 mg/kg). Mice were sacrificed either one or three days after treatment. The livers of the mice were removed for histological examination (FIGS. 11A-11D)."}, "[5]": {"system": "mice with DOX induced heart disease", "experiment": "Survival in doxorubicin (DOX) induced heart disease", "format": "in vivo, C57BL6/J mice", "conditions": "DOX 20 mg/kg and celastrol 3 mg/kg; after 2 weeks; DOX with placebo 80% mortality", "experimental": "The administration of doxorubicin (DOX; adriamycin) to induce cardiac damage is a well-known model of heart disease see for example, Rosenhoff et al., “Adriamycin-induced cardiac damage in the mouse: a small-animal model of cardiotoxicity.” J Natl Cancer Inst. July 1975; 55(1):191-4; and van der Vijgh et al., “Morphometric study of myocardial changes during doxorubicin-induced cardiomyopathy in mice.” Eur J Cancer Clin Oncol. October 1988; 24(10):1603-8. Doxorubicin was administered to C57BL6/J mice to induce heart damage. Groups of 13-14 C57BL6/J mice received either DOX (20 mg/kg) and a placebo, or DOX (20 mg/kg) and celastrol (3 mg/kg). Mice were examined after 2 weeks to determine survival (FIG. 13)."}, "[6]": {"system": "NOD-scid mice", "experiment": "Adaptive transfer of splenocytes into NOD-scid mice", "format": "in vivo", "conditions": "splenocytes from celastrol treated NOD mice, 5.3×10^6 cells per mouse via tail vein; at 68 day", "from_the_text": "NOD mice were sacrificed and splenocytes collected from celastrol-treated healthy mice and mice that became diabetic recently were adaptively transferred at 5.3×10^6 cells per mouse into NOD-scid mice (mice free from immune system) via tail vein injection. Blood glucose levels of the mice were monitored starting from 4 weeks after the adaptive transfer was made. All mice (n=4) that received splenocytes from diabetic mice became diabetic between 31-38 days (FIG. 17, Kaplan-Meier graph). In contrast, mice (12/12) that received splenocytes from celastrol treated mice were free of diabetes (hyperglycemic condition) at 68 day (FIG. 17)."}, "[7]": {"system": "irradiated wild type mice, C57BL/6", "experiment": "Secondary adaptive transfer of bone marrow cells into irradiated wild type mice", "format": "in vivo, C57BL/6 mice", "conditions": "bone marrow cells from celastrol treated primary adaptive transfer group, 1.5×10^6 cells per mouse; at 7 weeks; control group died within 10 days", "from_the_text": "Wild type mice that survived the primary transfer were used for secondary transfer. Bone marrow cells obtained from these mice were collected and transferred into irradiated wild type mice, C57BL/6 at 1.5×10^6 cells per mouse."}, "[8]": {"conditions": "celastrol 2.5 mg/kg i.p., 24 hours post treatment"}},
  "note": "“Also recorded” adds a separate entry of the source.",
  "data": [
    {"smiles": "CC1=C(O)C(=O)C=C2C1=CC=C1[C@@]2(C)CC[C@@]2(C)[C@@H]3C[C@](C)(C(=O)O)CC[C@]3(C)CC[C@]12C", "note": "[celastrol]", "values": [
      {"measurement": "cd34+ cells, percent of the population of bone marrow cells", "setting": "[1]; [8]", "value": 0.2, "unit": "%"},
      {"measurement": "fold increase of percentage of cd34+ cells in bone marrow over control", "setting": "[1]; [8]", "value": "~4", "unit": "fold"},
      {"measurement": "fold increase of percentage of cd45+ cells in bone marrow vs untreated control", "setting": "[1]; [8]", "value": "about 2 fold"},
      {"measurement": "fold increase of percentage of cd34+ cells in bone marrow over control", "setting": "[1]; celastrol 2.5 mg/kg i.p., 48 hours", "value": "~2", "unit": "fold"},
      {"measurement": "increase in CD45 population in bone marrow", "setting": "[1]; celastrol 2.5 mg/kg i.p., 48 hours post treatment, undetectable in placebo mice", "value": "still detectable"},
      {"measurement": "fold increase in the proportion of Sca-1+ stem cells in bone marrow vs untreated mice", "setting": "[1]; celastrol 2.5 mg/kg i.p., by 48 hours", "value": "~3", "unit": "fold"},
      {"measurement": "fold increase in the proportion of Sca-1+ stem cells in bone marrow vs untreated mice", "setting": "[1]; celastrol 2.5 mg/kg i.p., time not printed (before 48 hours)", "value": "approximately 4 fold"},
      {"measurement": "increase in cd34+, cd45+ and sca-1+ cells compared with GM-CSF", "setting": "[1]; doses not given", "value": "exceeded that observed using GM-CSF"},
      {"measurement": "blood glucose levels in STZ mice relative to STZ mice injected with saline placebo", "setting": "[2]", "value": "substantially lower; also recorded: normoglycemia"},
      {"measurement": "blood glucose levels after glucose challenge", "setting": "[3]", "value": "< 400", "unit": "mg/dL"},
      {"measurement": "liver histology after ALF induction", "setting": "[4]", "value": "regression of liver injury"},
      {"measurement": "survival", "setting": "[5]", "value": 40, "unit": "%"},
      {"measurement": "recipient mice free of diabetes (hyperglycemic condition)", "setting": "[6]", "value": "12/12"},
      {"measurement": "mice still surviving secondary transfer", "setting": "[7]", "value": 85.7, "unit": "%"}
    ]}
  ]
}
